Row | Structure (SMILES) | melting point [°C]
1 | CS(=O)(=O)C1CCN(C(=O)CCc2oc(-n3cnc4ccccc43)nc2-c2ccc(Cl)cc2)CC1 [Example 307, 1-{3-[2-(1H-benzoimidazol-1-yl)-4-(4-chlorophenyl)-5-oxazolyl]propanoyl}-4-(methylsulfonyl)piperidine] | 215 to 216
2 | Cc1ccc(C)c(CNC(=O)CCc2oc(-n3cnc4ccccc43)nc2-c2ccc(Cl)cc2)c1 [Example 181, 3-[2-(1H-benzimidazol-1-yl)-4-(4-chlorophenyl)-5-oxazolyl]-N-(2,5-dimethylbenzyl)propionamide] | 218 to 219
3 | CCOP(=O)(Cc1ccc(NC(=O)CCc2sc(-n3cnc4ccccc43)nc2C(C)(C)C)cc1)OCC | 155 to 156
4 | CCOP(=O)(Cc1ccc(NC(=O)CCc2oc(-n3ccnc3)nc2-c2ccc(Cl)cc2)cc1)OCC | 196 to 197
5 | CCOP(=O)(OCC)C(F)(F)c1ccc(NC(=O)CCc2oc(-n3cnc4ccccc43)nc2-c2ccc(Cl)cc2)cc1 | 155 to 156
6 | COC(=O)c1ccc(NC(=O)CCc2oc(-n3cnc4ccccc43)nc2-c2ccc(Cl)cc2)cc1 [Example 91, 3-[2-(1H-benzimidazol-1-yl)-4-(4-chlorophenyl)-5-oxazolyl]-N-[4-(methoxycarbonyl)phenyl]propionamide] | 249 to 250
7 | N#CCc1ccc(NC(=O)CCc2oc(-n3cnc4ccccc43)nc2-c2ccc(Cl)cc2)cc1 [Example 89, 3-[2-(1H-benzimidazol-1-yl)-4-(4-chlorophenyl)-5-oxazolyl]-N-[4-(cyanomethyl)phenyl]propionamide] | 212 to 214
8 | CCOP(=O)(Cc1ccc(NC(=O)CCc2sc(-n3cnc4ccccc43)nc2C(C)C)cc1)OCC | 171 to 172
9 | CCOP(=O)(Cc1ccc(NC(=O)CCc2sc(NS(=O)(=O)c3ccccc3)nc2-c2ccc(Cl)cc2)cc1)OCC | 213 to 214
10 | O=C(CCCc1oc(-c2ccccc2)nc1-c1ccc(Cl)cc1)N1CCN(c2ccccc2)CC1 [Example 51, 1-{4-[4-(4-chlorophenyl)-2-phenyl-5-oxazolyl]butanoyl}-4-phenylpiperazine] | 104 to 105
11 | COC(=O)c1ccc(NC(=O)CCc2sc(-c3ccccc3)nc2-c2ccc(Cl)cc2)cc1 [Example 45, 3-[4-(4-chlorophenyl)-2-phenyl-5-thiazolyl]-N-[4-(methoxycarbonyl)phenyl]propionamide] | 177 to 178
12 | Cc1cc(C)n(-c2nc(-c3ccc(Cl)cc3)c(CCC(=O)N3CCN(CC4CCN(C)CC4)CC3)o2)n1 [Example 347, 1-{3-[4-(4-chlorophenyl)-2-(3,5-dimethyl-1H-pyrazol-1-yl)-5-oxazolyl]propanoyl}-4-[(1-methyl-4-piperidinyl)methyl]piperazine] | 126 to 127
13 | O=C(CCc1oc(-n2cnc3ccccc32)nc1-c1ccc(Cl)cc1)NCc1cc(Cl)ccc1Cl [Example 174, 3-[2-(1H-benzimidazol-1-yl)-4-(4-chlorophenyl)-5-oxazolyl]-N-(2,5-dichlorobenzyl)propionamide] | 205 to 207
14 | O=C(CCc1oc(-n2cnc3ccccc32)nc1-c1ccc(Cl)cc1)NCc1cc(Br)ccc1F [Example 167, 3-[2-(1H-benzimidazol-1-yl)-4-(4-chlorophenyl)-5-oxazolyl]-N-(5-bromo-2-fluorobenzyl)propionamide] | 183 to 184
15 | COc1cc(NC(=O)CCc2oc(-n3cnc4ccccc43)nc2-c2ccc(Cl)cc2)cc(OC)c1OC [Example 127, 3-[2-(1H-benzimidazol-1-yl)-4-(4-chlorophenyl)-5-oxazolyl]-N-(3,4,5-trimethoxyphenyl)propionamide] | 228 to 229
16 | O=C(/C=C/c1oc(-c2ccccc2)nc1-c1ccc(Cl)cc1)Nc1ccc(C(=O)O)cc1 [Example 65, 4-({(2E)-3-[4-(4-chlorophenyl)-2-phenyl-5-oxazolyl]propenoyl}amino)benzoic acid] | 275 to 276
17 | O=C(CCc1oc(-n2cnc3ccccc32)nc1-c1ccc(F)cc1)N1CCC(O)CC1 [Example 258, 1-{3-[2-(1H-benzoimidazol-1-yl)-4-(4-fluorophenyl)-5-oxazolyl]propanoyl}-4-piperidinol] | 158 to 159
18 | CN(C)c1ccc(CNC(=O)CCc2oc(-n3cnc4ccccc43)nc2-c2ccc(Cl)cc2)cc1 [Example 135, 3-[2-(1H-benzimidazol-1-yl)-4-(4-chlorophenyl)-5-oxazolyl)-N-[4-(dimethylamino)benzyl]propionamide] | 184 to 185
19 | CNC(=O)Cc1ccc(NC(=O)CCc2oc(-n3cnc4ccccc43)nc2-c2ccc(Cl)cc2)cc1 [Example 143, 2-[4-({3-[2-(1H-benzimidazol-1-yl)-4-(4-chlorophenyl)-5-oxazolyl]propanoyl}amino)phenyl]-N-methylacetamide] | 219 to 221
20 | CCOP(=O)(Cc1ccc(NC(=O)CCc2oc(-n3ccnc3C)nc2-c2ccc(Cl)cc2)cc1)OCC | 158 to 159

The next lines start with the values.

Row | melting point [°C] | Structure (SMILES)
21 | 91 to 92 | CCOP(=O)(Cc1ccc(NC(=O)CCc2oc(-n3nnc4ccccc43)nc2-c2ccc(Cl)cc2)cc1)OCC
22 | 164 to 165 | COP(=O)(Cc1ccc(NC(=O)CCCCCc2sc(-c3ccccc3)nc2-c2ccc(Cl)cc2)cc1)OC
23 | 139 to 140 | NC(=O)CCc1oc(Oc2ccccc2)nc1-c1ccc(Cl)cc1 [Example 38, 3-[4-(4-chlorophenyl)-2-phenoxy-5-oxazolyl]propionamide]
24 | 182 to 184 | CN(Cc1ccc(NC(=O)CCc2oc(-n3cnc4ccccc43)nc2-c2ccc(Cl)cc2)cc1)C1CCOCC1 [Example 87, 3-[2-(1H-benzimidazol-1-yl)-4-(4-chlorophenyl)-5-oxazolyl)-N-(4-{[N-methyl-N-(4-tetrahydropyranyl)amino]methyl}phenyl)propionamide]
25 | 201 to 202 | O=C(CCc1oc(-n2cnc3ccccc32)nc1-c1ccc(Cl)cc1)NCc1cccc(-c2ccccc2)c1 [Example 177, 3-[2-(1H-benzimidazol-1-yl)-4-(4-chlorophenyl)-5-oxazolyl]-N-(3-phenylbenzyl)propionamide]
26 | 164 to 165 | O=C(CCc1oc(-n2cnc3ccccc32)nc1-c1ccc(Cl)cc1)NCCc1ccccc1 [Example 136, 3-[2-(1H-benzimidazol-1-yl)-4-(4-chlorophenyl)-5-oxazolyl]-N-(2-phenylethyl)propionamide]
27 | 212 to 213 | NC(=O)CCc1oc(-c2ccc(F)cc2)nc1-c1ccc(Cl)cc1 [Example 23, 3-[4-(4-chlorophenyl)-2-(4-fluorophenyl)-5-oxazolyl]propionamide]
28 | 216 to 217 | O=C(CCc1oc(-n2cnc3ccccc32)nc1-c1ccc(Cl)cc1)Nc1ccc(C2CCCCC2)cc1 [Example 116, 3-[2-(1H-benzimidazol-1-yl)-4-(4-chlorophenyl)-5-oxazolyl]-N-(4-cyclohexylphenyl)propionamide]
29 | 202 to 203 | O=C(CCc1oc(-n2cnc3ccccc32)nc1-c1ccc(Cl)cc1)NCc1ccccc1F [Example 137, 3-[2-(1H-benzimidazol-1-yl)-4-(4-chlorophenyl)-5-oxazolyl]-N-(2-fluorobenzyl)propionamide]
30 | 127 to 128 | CCNC(=O)CCCc1oc(-c2ccccc2)nc1-c1ccc(Cl)cc1 [Example 49, N-ethyl-4-[4-(4-chlorophenyl)-2-phenyl-5-oxazolyl]butanamide]

Reference: patent US7183276B2, “Azole compounds” (Takeda Pharmaceutical Company Limited, priority 2002, dated 2007)
